This is an account of results in ChEMBL document CHEMBL1150020, “Optical isomers of RP 64406: New potent antiglutamate agents” (1993).

This experiment relates to Rattus norvegicus. As to the kind of experiment: Ability to protect against glutamate-induced convulsion in rat upon i.p. administration. The class given is functional.
Where [1] appears, read: Rattus norvegicus, ip, read-out: ED50.

SMILES strings stand for the structures.

One may read the ED50 as the dose at which the effect has come halfway, by size or by number of responders. For the compound `C[S+]([O-])CCn1c(=N)sc2cc(OC(F)(F)F)ccc21` (single isomer, unassigned; (+)), the ED50 is 1 mg/kg.

In the case of `Nc1nc2ccc(OC(F)(F)F)cc2s1` [RILUZOLE], the median effective dose (ED50) under setting [1] came out at 3.2 mg/kg. In turn, `C[S+]([O-])CCn1c(=N)sc2cc(OC(F)(F)F)ccc21` (stereo in doubt; 3) showed a median effective dose (ED50) of 1.1 mg/kg. `C[S+]([O-])CCn1c(=N)sc2cc(OC(F)(F)F)ccc21` (single isomer, unassigned; (-)): under setting [1], the ED50 amounted to 1.6 mg/kg.

As to `CSCCn1c(=N)sc2cc(OC(F)(F)F)ccc21`, under setting [1], the ED50 was 1 mg/kg.
